# In patent publication US12060351B2, “Thiadiazole IRAK4 inhibitors” (Gilead Sciences, Inc., priority 2018, dated 2024):
# Where two headings read alike, the source gives them in different places.
# Columns and labels:
# [1] = molecular target: T1, IRAK4 enzyme (Homo sapiens, UniProt Q9NWZ3); test: IRAK4 Biochemical Assay (TR-FRET, STK1 KinEASE); details: 500 μM ATP
# T1 construct: purchased Carna Biosciences, Chuo-ku, Kobe, Japan
# T1 sequence (Q9NWZ3 1-460): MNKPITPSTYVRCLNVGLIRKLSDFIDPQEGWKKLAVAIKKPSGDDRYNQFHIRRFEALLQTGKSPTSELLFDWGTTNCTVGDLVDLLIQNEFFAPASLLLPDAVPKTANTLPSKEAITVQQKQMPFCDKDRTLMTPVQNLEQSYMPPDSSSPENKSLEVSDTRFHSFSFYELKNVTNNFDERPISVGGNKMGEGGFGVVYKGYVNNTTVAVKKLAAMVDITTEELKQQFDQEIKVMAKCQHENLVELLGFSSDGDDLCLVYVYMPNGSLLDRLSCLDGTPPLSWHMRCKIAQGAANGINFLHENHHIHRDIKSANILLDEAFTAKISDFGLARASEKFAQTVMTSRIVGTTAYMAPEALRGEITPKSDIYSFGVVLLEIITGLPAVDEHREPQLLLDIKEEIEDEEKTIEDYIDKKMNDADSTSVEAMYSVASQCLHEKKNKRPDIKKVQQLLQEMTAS
# Method: IRAK4 enzyme (Carna Biosciences, Chuo-ku, Kobe, Japan) activity was measured by detecting phosphorylated peptide substrate formation using an antibody against the phosphorylated peptide substrate. This is a time-resolved fluorescence resonance energy transfer (TR-FRET) immunoassay, based on the STK1 KinEASE Assay (Cisbio, Bedford, Massachusetts). The assay was designed as a simple two-step, endpoint assay (a 5 μl enzyme reaction followed by 5 μl stop and detect Solution) performed in ProxiPlate-384 Plus plates (Perkin Elmer, Waltham, Massachusetts). […] Compounds diluted in DMSO were spotted into 384 well plates using a Labcyte® Echo 550 Liquid Handling System prior to addition of IRAK4 enzyme and peptide substrate. Reaction solutions were delivered using a Multi-Flo (Bio-Tek Instruments). The enzyme and peptide solution was incubated with compound for 15 minutes at room temp before the reaction was initiated by the addition of ATP. The standard 5 μl reaction mixture contained 500 μM ATP, 2 μM peptide (STK1 Peptide), 0.75 nM of IRAK4 in reaction buffer (50 mM HEPES, pH 7.0, 0.02% NaN3, 0.01% BSA, 0.1 mM Orthovanadate, 5 mM MgCl2, 0.025% NP-40, 1 mM DTT). After 120 min of incubation at room temperature, 5 μl of Stop and Detect Solution (1:100 Cryptate labeled anti-phosphorylated peptide antibody solution and 125 nM Tracer in a 50 mM HEPES pH 7.0 detection buffer containing sufficient EDTA) was added. The plate was then further incubated for 60 minutes at room temperature and read on Envision 2103 Multilabeled reader (PerkinElmer) with excitation/emission/FRET emission at 340 nm/615 nm/665 nm, respectively. Fluorescence intensities at 615 nm and 665 nm emission wavelengths were expressed as a ratio (665 nm/615 nm).
# [2] = system: TNFα; test: IRAK4 Monocyte TNFα Cell Based Assay (LPS-stimulated, TR-FRET TNFα detection); set-up: species or system human; details: read-out: EC50 MONO TNF HTRF
# Method: IRAK4 Monocyte TNFα Cell Based Assay Procedure:
# The cell suspension was then plated at a density of 5,000 cells/well onto black 384 well Greiner clear bottom plates. Plates were pre-spotted with test compounds and serially diluted in DMSO where 40 nL/well were delivered using the Echo 550 acoustic liquid dispenser (Labcyte®) for a final DMSO concentration of 0.1%. Plated cells were treated with compound for 1 hour at 37° C. Cells were then stimulated with 50 pg/ml of LPS (Sigma) excluding outside columns of plate used for unstimulated cell control wells. Cells were incubated for an additional 4 hours at 37° C. Cells were then spun out of the media and 5 μl of sample were taken and analyzed for total TNFα content using the TR-FRET Human TNFα detection system (CisBio). This system utilizes two labeled antibodies (cryptate and XL665) that bind to two different epitopes of the TNFα molecule and produce FRET signal proportional to the concentration of TNFα in the sample. Detection antibodies are mixed 50:50 and 5 μL were dispensed into each well. Plates were covered with clear seals and incubated at room temp overnight. […] Percent of control was calculated as follows: % Control=100×(RatioSample−Ratio0% Stimulation)/(Ratio100% Stimulation−Ratio0% Stimulation) where unstimulated cells (0% stimulation) were the negative control and stimulated cells (100% stimulation) were used as the positive control.
# [3] = Homo sapiens, Monocyte, human monocytes, LPS-stimulated, Table 2 second part (compounds 33-343)
# [4] = human monocytes, LPS-stimulated, Table 2 second part (compounds 33-343)
SMILES,"EC50 [2, 3] [nM]",also measured
"CC(C)Nc1cc(-c2ccc3cc(C#N)cnn23)ncc1-c1nnc([C@@H]2CC[C@H]2C(C)(C)O)s1 (racemic) [Example 88, 7-(5-(5-((1,2-trans)-2-(2-hydroxypropan-2-yl)cyclobutyl)-1,3,4-thiadiazol-2-yl)-4-(isopropylamino)pyridin-2-yl)pyrrolo[1,2-b]pyridazine-3-carbonitrile]",,"IC50 ([1]; IC50 IRAK4-HTBS, Table 2 second part (compounds 33-343)): 0.83 nM"
"C[C@H](C#N)Nc1cc(-c2ccc3cc(C#N)cnn23)ncc1-c1nnc(N2CC3CC(C2)N3C(=O)C(C)(C)O)s1 [Example 115, 7-(4-(((R)-1-cyanoethyl)amino)-5-(5-(6-(2-hydroxy-2-methylpropanoyl)-3,6-diazabicyclo[3.1.1]heptan-3-yl)-1,3,4-thiadiazol-2-yl)pyridin-2-yl)pyrrolo[1,2-b]pyridazine-3-carbonitrile]",,"EC50 ([2]; Homo sapiens, Monocyte): 3.5 nM"
"CC(C)Nc1cc(-c2ccc3cc(C#N)cnn23)ncc1-c1nnc([C@H]2C[C@@H](NC(=O)C3CC3)C2)s1 [Example 281, N-((1s,3s)-3-(5-(6-(3-cyanopyrrolo[1,2-b]pyridazin-7-yl)-4-(isopropylamino)pyridin-3-yl)-1,3,4-thiadiazol-2-yl)cyclobutyl)cyclopropanecarboxamide]",8280,
"CC(C)Nc1cc(-c2ccc3cc(C#N)cnn23)ncc1-c1nnc(N2C[C@H]3CC[C@@H](C2)[C@@H]3NC(=O)N2CCN(C3COC3)CC2)s1 [Example 116, N-((1R,5S,8s)-3-(5-(6-(3-cyanopyrrolo[1,2-b]pyridazin-7-yl)-4-(isopropylamino)pyridin-3-yl)-1,3,4-thiadiazol-2-yl)-3-azabicyclo[3.2.1]octan-8-yl)-4-(oxetan-3-yl)piperazine-1-carboxamide]",4.1,
"CC(=O)N[C@H]1CC[C@H](c2nnc(-c3cnc(-c4ccc5cc(C#N)cnn45)cc3NC(C)C)s2)CC1 [Example 24, N-((1r,4r)-4-(5-(6-(3-cyanopyrrolo[1,2-b]pyridazin-7-yl)-4-(isopropylamino)pyridin-3-yl)-1,3,4-thiadiazol-2-yl)cyclohexyl)acetamide]",,"IC50 ([1]; Table 2 first part (compounds 1-32), read-out: IC50 HTRF): < 1 nM"
"CC(C)Nc1cc(-c2ccc3cc(C#N)cnn23)ncc1-c1nnc(N2CCS(=O)(=O)CC2)s1 [Compound 257, 7-(5-(5-(1,1-dioxidothiomorpholino)-1,3,4-thiadiazol-2-yl)-4-(isopropylamino)pyridin-2-yl)pyrrolo[1,2-b]pyridazine-3-carbonitrile]",≥ 10000,
"CC(C)Nc1cc(-c2ccc3cc(C#N)cnn23)ncc1-c1nnc(C2CCNCC2)s1 [Example 129, 7-(4-(isopropylamino)-5-(5-(piperidin-4-yl)-1,3,4-thiadiazol-2-yl)pyridin-2-yl)pyrrolo[1,2-b]pyridazine-3-carbonitrile]",21.7,
"CC(=O)N[C@@H]1[C@@H]2CC[C@H]1CN(c1nnc(-c3cnc(-c4ccc5cc(C#N)cnn45)cc3N[C@H](C)C#N)s1)C2 [Example 53, N-((1R,5S,8S)-3-(5-(4-(((R)-1-cyanoethyl)amino)-6-(3-cyanopyrrolo[1,2-b]pyridazin-7-yl)pyridin-3-yl)-1,3,4-thiadiazol-2-yl)-3-azabicyclo[3.2.1]octan-8-yl)acetamide]",0.6,
"CC(=O)NC12CCC(c3nnc(-c4cnc(-c5ccc6cc(C#N)cnn56)cc4N[C@H](C)C#N)s3)(CC1)CC2 [Example 72, (R)-N-(4-(5-(4-((1-cyanoethyl)amino)-6-(3-cyanopyrrolo[1,2-b]pyridazin-7-yl)pyridin-3-yl)-1,3,4-thiadiazol-2-yl)bicyclo[2.2.2]octan-1-yl)acetamide]",2.8,
"CC(C)(O)C(=O)NC12CCC(c3nnc(-c4cnc(-c5ccc6cc(C#N)cnn56)cc4NC4CCOCC4)s3)(CC1)CC2 [Example 337, N-(4-(5-(6-(3-cyanopyrrolo[1,2-b]pyridazin-7-yl)-4-((tetrahydro-2H-pyran-4-yl)amino)pyridin-3-yl)-1,3,4-thiadiazol-2-yl)bicyclo[2.2.2]octan-1-yl)-2-hydroxy-2-methylpropanamide]",3.3,
"CC(C)Nc1cc(-c2ccc3cc(C#N)cnn23)ncc1-c1nnc(N2CC3CC(C2)N3C(=O)CN=S(C)(C)=O)s1 [Example 107, 7-(5-(5-(6-(2-((dimethyl(oxo)-16-sulfanylidene)amino)acetyl)-3,6-diazabicyclo[3.1.1]heptan-3-yl)-1,3,4-thiadiazol-2-yl)-4-(isopropylamino)pyridin-2-yl)pyrrolo[1,2-b]pyridazine-3-carbonitrile]",,"EC50 [2, 4]: 18.4 nM"
"CC(C)Nc1cc(-c2ccc3cc(C#N)cnn23)ncc1-c1nnc([C@H]2C[C@H](NC3COC3)C2)s1 [Example 283, 7-(4-(isopropylamino)-5-(5-((1r,3r)-3-(oxetan-3-ylamino)cyclobutyl)-1,3,4-thiadiazol-2-yl)pyridin-2-yl)pyrrolo[1,2-b]pyridazine-3-carbonitrile]",19.9,
"CC(C)Nc1cc(-c2ccc3cc(C#N)cnn23)ncc1-c1nnc(N2C[C@H]3CC[C@@H](C2)[C@@H]3NC(=O)N2CCN(C)CC2)s1 [Example 96, N-((1R,5S,8s)-3-(5-(6-(3-cyanopyrrolo[1,2-b]pyridazin-7-yl)-4-(isopropylamino)pyridin-3-yl)-1,3,4-thiadiazol-2-yl)-3-azabicyclo[3.2.1]octan-8-yl)-4-methylpiperazine-1-carboxamide]",2.3,
"CC(C)Nc1cc(-c2ccc3cc(C#N)cnn23)ncc1-c1nnc(N2C[C@H]3CC[C@@H](C2)[C@H]3O)s1 [Example 146, 7-(5-(5-((1R,5S,8r)-8-hydroxy-3-azabicyclo[3.2.1]octan-3-yl)-1,3,4-thiadiazol-2-yl)-4-(isopropylamino)pyridin-2-yl)pyrrolo[1,2-b]pyridazine-3-carbonitrile]",,"IC50 ([1]; Table 2 second part (compounds 33-343), read-out: IC50 IRAK4-HTBS): 0.48 nM"
"CC1(Nc2cc(-c3ccc4cc(C#N)cnn34)ncc2-c2nnc(N3CC4CC(C3)N4C(=O)C(C)(C)O)s2)COC1 [Example 112, 7-(5-(5-(6-(2-hydroxy-2-methylpropanoyl)-3,6-diazabicyclo[3.1.1]heptan-3-yl)-1,3,4-thiadiazol-2-yl)-4-((3-methyloxetan-3-yl)amino)pyridin-2-yl)pyrrolo[1,2-b]pyridazinc-3-carbonitrile]",,"EC50 [2, 4]: 13.1 nM"
"CC(=O)N1CCN(C(=O)N[C@@H]2[C@@H]3CC[C@H]2CN(c2nnc(-c4cnc(-c5ccc6cc(C#N)cnn56)cc4NC(C)C)s2)C3)CC1 [Example 104, 4-acetyl-N-((1R,5S,8s)-3-(5-(6-(3-cyanopyrrolo[1,2-b]pyridazin-7-yl)-4-(isopropylamino)pyridin-3-yl)-1,3,4-thiadiazol-2-yl)-3-azabicyclo[3.2.1]octan-8-yl)piperazine-1-carboxamide]",1.7,
"CC(C)Nc1cc(-c2ccc3cc(C#N)cnn23)ncc1-c1nnc(N2C[C@H]3CC[C@@H](C2)[C@@H]3NC(=O)[C@@H](C)O)s1 [Example 90, (R)-N-((1R,5S,8s)-3-(5-(6-(3-cyanopyrrolo[1,2-b]pyridazin-7-yl)-4-(isopropylamino)pyridin-3-yl)-1,3,4-thiadiazol-2-yl)-3-azabicyclo[3.2.1]octan-8-yl)-2-hydroxypropanamide]",3.6,
